# Reference: US5604203A, “Analogs of peptide YY and uses thereof” (University of Cincinnati, priority 1994, dated 1997)
# Like-named read-outs stand apart in the source and are kept apart here. Square brackets hold non-standard residues; d marks the D form. Ends that are not written are not given here. Peptide text beside a SMILES is read from it. Bip = N[C@@H](Cc1ccc(-c2ccccc2)cc1)C(=O)O; 2Nal = N[C@@H](Cc1ccc2ccccc2c1)C(=O)O; Tic = O=C(O)[C@@H]1Cc2ccccc2CN1; 2Thi = N[C@@H](Cc1cccs1)C(=O)O
# T1: intestinal PYY-preferring receptors (Rattus norvegicus, UniProt Q9ERC0)
# T1 sequence (Q9ERC0 1-381): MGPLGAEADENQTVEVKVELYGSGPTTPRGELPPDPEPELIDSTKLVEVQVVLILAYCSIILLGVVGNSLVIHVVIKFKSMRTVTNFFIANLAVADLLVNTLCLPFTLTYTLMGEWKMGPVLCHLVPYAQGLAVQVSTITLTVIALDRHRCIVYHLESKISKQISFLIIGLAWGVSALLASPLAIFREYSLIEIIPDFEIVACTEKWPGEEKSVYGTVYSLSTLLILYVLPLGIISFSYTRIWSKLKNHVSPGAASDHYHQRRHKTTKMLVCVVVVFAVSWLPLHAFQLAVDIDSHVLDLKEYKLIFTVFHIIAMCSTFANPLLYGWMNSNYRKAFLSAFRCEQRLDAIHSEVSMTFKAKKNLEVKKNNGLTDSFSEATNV
# B1: N-α-Ac-[Phe^27,Thi^36 ]PYY(22-36) (peptide)
# peptide: ASLRHFLNLVTRQRX
# HELM: PEPTIDE1{[ac].A.S.L.R.H.F.L.N.L.V.T.R.Q.R.[O=C([C@H](Cc1cccs1)N[*:1])[*:2]].[am]}$$$$V2.0
# SMILES: CC(=O)N[C@@H](C)C(=O)N[C@@H](CO)C(=O)N[C@@H](CC(C)C)C(=O)N[C@@H](CCCNC(=N)N)C(=O)N[C@@H](Cc1c[nH]cn1)C(=O)N[C@@H](Cc1ccccc1)C(=O)N[C@@H](CC(C)C)C(=O)N[C@@H](CC(N)=O)C(=O)N[C@@H](CC(C)C)C(=O)N[C@H](C(=O)N[C@H](C(=O)N[C@@H](CCCNC(=N)N)C(=O)N[C@@H](CCC(N)=O)C(=O)N[C@@H](CCCNC(=N)N)C(=O)N[C@@H](Cc1cccs1)C(N)=O)[C@@H](C)O)C(C)C
# B2: N-α-Ac-[Bth^27 ]PYY(22-36) (peptide)
# peptide: ASLRHXLNLVTRQRY
# HELM: PEPTIDE1{[ac].A.S.L.R.H.[O=C([C@H](Cc1csc2ccccc12)N[*:1])[*:2]].L.N.L.V.T.R.Q.R.Y.[am]}$$$$V2.0
# SMILES: CC(=O)N[C@@H](C)C(=O)N[C@@H](CO)C(=O)N[C@@H](CC(C)C)C(=O)N[C@@H](CCCNC(=N)N)C(=O)N[C@@H](Cc1c[nH]cn1)C(=O)N[C@@H](Cc1csc2ccccc12)C(=O)N[C@@H](CC(C)C)C(=O)N[C@@H](CC(N)=O)C(=O)N[C@@H](CC(C)C)C(=O)N[C@H](C(=O)N[C@H](C(=O)N[C@@H](CCCNC(=N)N)C(=O)N[C@@H](CCC(N)=O)C(=O)N[C@@H](CCCNC(=N)N)C(=O)N[C@@H](Cc1ccc(O)cc1)C(N)=O)[C@@H](C)O)C(C)C
# Tests used:
# [1] = biological target: T1, intestinal PYY-preferring receptors
# Method: Bound and free peptides were separated by centrifugation at 20,000×g for 10 min.
# All points in the binding experiments are the mean of at least three experiments performed in duplicate.
# [2] = biological target: PYY receptor of rat jejunal epithelial plasma membranes (rat); experiment: competition with 125I-PYY on rat jejunal membranes
# [3] = biological target: PYY receptor of rat jejunal epithelial plasma membranes (rat); experiment: competition with 0.05 nM 125I-PYY on rat jejunal epithelial plasma membranes
# [4] = biological target: PYY receptor of rat jejunal epithelial plasma membranes (rat); experiment: competitive binding, done as described above (125I-PYY, rat jejunal membranes)
# [5] = BINDING IC50 (nM), Table 1, 125I-PYY, rat jejunal membranes, mean of three separate experiments
# [6] = IC50 (nM), Table 2, receptor binding data
# [7] = IC50 (nM), Table 3, binding activity
molecule,measurement,setting,value
"CC(=O)N[C@@H](C)C(=O)N[C@@H](CO)C(=O)N[C@@H](CC(C)C)C(=O)N[C@@H](CCCNC(=N)N)C(=O)N[C@@H](Cc1cnc[nH]1)C(=O)N[C@@H](Cc1ccc(O)cc1)C(=O)N[C@@H](CC(C)C)C(=O)N[C@@H](CC(N)=O)C(=O)N[C@@H](CC(C)C)C(=O)N[C@H](C(=O)N[C@H](C(=O)N[C@@H](CCCNC(=N)N)C(=O)N[C@@H](CCC(N)=O)C(=O)N[C@@H](CCCNC(=N)N)C(=O)N[C@@H](Cc1ccc(O)cc1)C(N)=O)[C@@H](C)O)C(C)C [N-α-Ac-PYY(22-36), N-α-Ac-A S L R H Y L N L V T R Q R Y--NH2]",IC50,[1]; [5],1.12 nM
same,IC50,[1]; [6],0.08 nM
"CC(=O)N[C@@H](C)C(=O)N[C@@H](CO)C(=O)N[C@@H](CC(C)C)C(=O)N[C@@H](CCCNC(=N)N)C(=O)N[C@@H](Cc1c[nH]cn1)C(=O)N[C@@H](Cc1ccc(Cl)cc1)C(=O)N[C@@H](CC(C)C)C(=O)N[C@@H](CC(N)=O)C(=O)N[C@@H](CC(C)C)C(=O)N[C@H](C(=O)N[C@H](C(=O)N[C@@H](CCCNC(=N)N)C(=O)N[C@@H](CCC(N)=O)C(=O)N[C@@H](CCCNC(=N)N)C(=O)N[C@@H](Cc1ccc(O)cc1)C(N)=O)[C@@H](C)O)C(C)C [Peptide 904, N-α-Ac-A S L R H [Pcp] L N L V T R Q R Y--NH2] (HELM PEPTIDE1{[ac].A.S.L.R.H.[O=C([C@H](Cc1ccc(Cl)cc1)N[*:1])[*:2]].L.N.L.V.T.R.Q.R.Y.[am]}$$$$V2.0)",IC50,[1]; [7],1.58 nM
"CC(=O)N[C@@H](C)C(=O)N[C@@H](CO)C(=O)N[C@@H](CC(C)C)C(=O)N[C@@H](CCCNC(=N)N)C(=O)N[C@@H](Cc1c[nH]cn1)C(=O)N[C@@H](Cc1csc2ccccc12)C(=O)N[C@@H](CC(C)C)C(=O)N[C@@H](CC(N)=O)C(=O)N[C@@H](CC(C)C)C(=O)N[C@H](C(=O)N[C@H](C(=O)N[C@@H](CCCNC(=N)N)C(=O)N[C@@H](CCC(N)=O)C(=O)N[C@@H](CCCNC(=N)N)C(=O)N[C@@H](Cc1ccc(O)cc1)C(N)=O)[C@@H](C)O)C(C)C [Peptide 905, N-α-Ac-A S L R H [Bth] L N L V T R Q R Y--NH2] (HELM PEPTIDE1{[ac].A.S.L.R.H.[O=C([C@H](Cc1csc2ccccc12)N[*:1])[*:2]].L.N.L.V.T.R.Q.R.Y.[am]}$$$$V2.0)",IC50,[1]; [6],0.22 nM
"CC(=O)N[C@@H](C)C(=O)N[C@@H](CO)C(=O)N[C@@H](CC(C)C)C(=O)N[C@@H](CCCN=C(N)N)C(=O)N[C@@H](Cc1c[nH]cn1)C(=O)N[C@@H](Cc1ccc(-c2ccccc2)cc1)C(=O)N[C@@H](CC(C)C)C(=O)N[C@@H](CC(N)=O)C(=O)N[C@@H](CC(C)C)C(=O)N[C@H](C(=O)N[C@H](C(=O)N[C@@H](CCCN=C(N)N)C(=O)N[C@@H](CCC(N)=O)C(=O)N[C@@H](CCCN=C(N)N)C(=O)N[C@@H](Cc1ccc(O)cc1)C(N)=O)[C@@H](C)O)C(C)C [Peptide 906, N-α-Ac-A S L R H [Bip] L N L V T R Q R Y--NH2] (HELM PEPTIDE1{[ac].A.S.L.R.H.[O=C([C@H](Cc1ccc(-c2ccccc2)cc1)N[*:1])[*:2]].L.N.L.V.T.R.Q.R.Y.[am]}$$$$V2.0)",IC50,[1]; [6],4.46 nM
"CC(=O)N[C@@H](C)C(=O)N[C@@H](CO)C(=O)N[C@@H](CC(C)C)C(=O)N[C@@H](CCCNC(=N)N)C(=O)N[C@@H](Cc1c[nH]cn1)C(=O)N[C@@H](Cc1ccc2ccccc2c1)C(=O)N[C@@H](CC(C)C)C(=O)N[C@@H](CC(N)=O)C(=O)N[C@@H](CC(C)C)C(=O)N[C@H](C(=O)N[C@H](C(=O)N[C@@H](CCCNC(=N)N)C(=O)N[C@@H](CCC(N)=O)C(=O)N[C@@H](CCCNC(=N)N)C(=O)N[C@@H](Cc1ccc(O)cc1)C(N)=O)[C@@H](C)O)C(C)C [Peptide 911, N-α-Ac-A S L R H [NaL] L N L V T R Q R Y--NH2] (HELM PEPTIDE1{[ac].A.S.L.R.H.[O=C([C@H](Cc1ccc2ccccc2c1)N[*:1])[*:2]].L.N.L.V.T.R.Q.R.Y.[am]}$$$$V2.0)",IC50,[1],0.39 nM
CC(=O)N[C@@H](C)C(=O)N[C@@H](CO)C(=O)N[C@@H](CC(C)C)C(=O)N[C@@H](CCCNC(=N)N)C(=O)N[C@@H](Cc1c[nH]cn1)C(=O)N[C@@H](Cc1cccs1)C(=O)N[C@@H](CC(C)C)C(=O)N[C@@H](CC(N)=O)C(=O)N[C@@H](CC(C)C)C(=O)N[C@H](C(=O)N[C@H](C(=O)N[C@@H](CCCNC(=N)N)C(=O)N[C@@H](CCC(N)=O)C(=O)N[C@@H](CCCNC(=N)N)C(=O)N[C@@H](Cc1ccc(O)cc1)C(N)=O)[C@@H](C)O)C(C)C [Peptide 916] (HELM PEPTIDE1{[ac].A.S.L.R.H.[O=C([C@H](Cc1cccs1)N[*:1])[*:2]].L.N.L.V.T.R.Q.R.Y.[am]}$$$$V2.0),IC50,[1]; [6],0.095 nM
"CC(=O)N[C@@H](C)C(=O)N[C@@H](CO)C(=O)N[C@@H](CC(C)C)C(=O)N[C@@H](CCCNC(=N)N)C(=O)N[C@@H](Cc1cnc[nH]1)C(=O)N[C@@H](Cc1ccccc1)C(=O)N[C@@H](CC(C)C)C(=O)N[C@@H](CC(N)=O)C(=O)N[C@@H](CC(C)C)C(=O)N[C@H](C(=O)N[C@H](C(=O)N[C@@H](CCCNC(=N)N)C(=O)N[C@@H](CCC(N)=O)C(=O)N[C@@H](CCCNC(=N)N)C(=O)N[C@@H](Cc1cccs1)C(N)=O)[C@@H](C)O)C(C)C [Peptide 917, M-α-Ac-A S L R H (Phel L N L V T R Q R [Thi]-NH2] (HELM PEPTIDE1{[ac].A.S.L.R.H.F.L.N.L.V.T.R.Q.R.[O=C([C@H](Cc1cccs1)N[*:1])[*:2]].[am]}$$$$V2.0)",IC50,[1]; [7],4.46 nM
"AALRHYLNLVARQRY-NH2 [[Ala^23,32]PYY(22-36), A [Ala] L R H Y L N L V [Ala] R Q R Y-NN2]",IC50,[1]; [5],> 10000 nM
"ASLRHYENLVTRQRY-NH2 [[Glu^28]PYY(22-36), A S L R H Y [Glu] N L V T R Q R Y--NH2]",IC50,[1]; [5],199 nM
"ASLRHYLNLVARQRY-NH2 [[Ala^32]PYY(22-36), A S L R H Y L N L V [Ala] R Q R Y--NH2]",IC50,[1]; [5],71 nM
Ac-ASLRHFLNLVTRQRY-NH2 [N-α-Ac-[Phe^27]PYY(22-36)],IC50,[1]; [5],0.8 nM
"Ac-ASLRHWLNLVTRQRY-NH2 [Peptide 915, N-α-Ac-A S L R H [Trp] L N L V T R Q R Y--NH2]",IC50,[1]; [6],0.1 nM
"Ac-FSLRHFLNLVTRQRY-NH2 [Peptide 908, N-α-Ac-[Phe]S L R N [Phe] L N L V T R Q R Y--NH2]",IC50,[1]; [7],11.2 nM
"Ac-YSLRHFLNLVTRQRY-NH2 [Peptide 910, N-α-Ac-[Tyr] S L R H [Phe] L N L V T R Q R Y--NH2]",IC50,[1]; [7],0.1 nM
N-α-Ac-[Phe^27 ]PYY(25-36) (peptide),IC50,[2],0.15 nM
NPY (neuropeptide Y) (ligand),IC50,[3],2 nM
PYY(22-36) (peptide),IC50,[3],4 nM
[im-DNP-His^26 ]PYY (peptide),IC50,[3],4 nM
Ac-ASLRH[Tic]LNLVTRQRY-NH2 [N-α-Ac-[Tic^27 ]PYY(22-36)],IC50,[2],4.5 nM
Ac-ASLRH[2Thi]LNLVTRQRY-NH2 [N-α-Ac-[Thi^27 ]PYY(22-36)],IC50,[2],0.095 nM
Ac-ASLRH[Bip]LNLVTRQRY-NH2 [N-α-Ac-[Bip^27 ]PYY(22-36)],IC50,[2],4.46 nM
Ac-ASLRH[2Nal]LNLVTRQRY-NH2 [N-α-Ac-[Nal^27 ]PYY(22-36)],IC50,[2],0.39 nM
Ac-ASLRHWLNLVTRQRY-NH2 [N-α-Ac-[Trp^27 ]PYY(22-36)],IC50,[2],0.1 nM
"AALRHYLNLVARQRY-NH2 [[Ala^23,32 ]PYY(22-36)]",IC50,[3],> 10000 nM
ASLRHYENLVTRQRY-NH2 [[Glu^28 ]PYY(22-36)],IC50,[3],199 nM
B1,IC50,[4],4.46 nM
B2,IC50,[2],0.22 nM
ASLRHYLNLVARQRY-NH2 [[Ala^32 ]PYY(22-36)],IC50,[3],71 nM
